Data reported in ChEMBL document CHEMBL1142962, “Antiproliferative prenylated stilbenes and flavonoids from Macaranga alnifolia from the Madagascar rainforest” (J Nat Prod, 2007).
pIC50: −log10 of the molar value.

Test system: A2780 (human ovarian cancer)
Assay: Antiproliferative activity against drug-sensitive human A2780 cells

Row | pIC50 | Compound
1 | 6.41 | CC(C)=CCc1c(O)cc(/C=C/c2cc(O)c3c(c2)C[C@@H]2C(C)(C)[C@H](O)CC[C@@]2(C)O3)cc1O [SCHWEINFURTHIN G]
2 | 5.35 | COc1cc(/C=C/c2cc(O)c3c(c2)OC(C)(C)C(O)C3)cc2c1O[C@]1(C)C[C@@H](O)[C@@H](O)C(C)(C)[C@H]1C2 (stereo partly drawn) [SCHWEINFURTHIN H]

Row | Compound | pIC50
3 | CC(C)=CCc1c(O)cc(/C=C/c2cc(O)c3c(c2)C[C@@H]2C(C)(C)[C@H](O)[C@H](O)C[C@@]2(C)O3)cc1O [VEDELIANIN] | 6.89
